Reference: patent US20230103791A1 (GLAXOSMITHKLINE INTELLECTUAL PROPERTY DEVELOPMENT LIMITED, priority 2019, published 2023)

What follows are compounds tested against T1, human Nav1.8 (Homo sapiens, UniProt Q9Y5Y9) (assay: Nav1.8 sodium channels assay, QPatch 48 HTX electrophysiology in HEK293-Nav1.8 cells). Conditions: at least one set of experimental runs; read-out: average pIC50 value against Nav1.8 (converted).
T1 construct: expressed in transfected cells; host or cells: HEK293 (HEK293-Nav1.8)
T1 sequence (Q9Y5Y9 whole entry): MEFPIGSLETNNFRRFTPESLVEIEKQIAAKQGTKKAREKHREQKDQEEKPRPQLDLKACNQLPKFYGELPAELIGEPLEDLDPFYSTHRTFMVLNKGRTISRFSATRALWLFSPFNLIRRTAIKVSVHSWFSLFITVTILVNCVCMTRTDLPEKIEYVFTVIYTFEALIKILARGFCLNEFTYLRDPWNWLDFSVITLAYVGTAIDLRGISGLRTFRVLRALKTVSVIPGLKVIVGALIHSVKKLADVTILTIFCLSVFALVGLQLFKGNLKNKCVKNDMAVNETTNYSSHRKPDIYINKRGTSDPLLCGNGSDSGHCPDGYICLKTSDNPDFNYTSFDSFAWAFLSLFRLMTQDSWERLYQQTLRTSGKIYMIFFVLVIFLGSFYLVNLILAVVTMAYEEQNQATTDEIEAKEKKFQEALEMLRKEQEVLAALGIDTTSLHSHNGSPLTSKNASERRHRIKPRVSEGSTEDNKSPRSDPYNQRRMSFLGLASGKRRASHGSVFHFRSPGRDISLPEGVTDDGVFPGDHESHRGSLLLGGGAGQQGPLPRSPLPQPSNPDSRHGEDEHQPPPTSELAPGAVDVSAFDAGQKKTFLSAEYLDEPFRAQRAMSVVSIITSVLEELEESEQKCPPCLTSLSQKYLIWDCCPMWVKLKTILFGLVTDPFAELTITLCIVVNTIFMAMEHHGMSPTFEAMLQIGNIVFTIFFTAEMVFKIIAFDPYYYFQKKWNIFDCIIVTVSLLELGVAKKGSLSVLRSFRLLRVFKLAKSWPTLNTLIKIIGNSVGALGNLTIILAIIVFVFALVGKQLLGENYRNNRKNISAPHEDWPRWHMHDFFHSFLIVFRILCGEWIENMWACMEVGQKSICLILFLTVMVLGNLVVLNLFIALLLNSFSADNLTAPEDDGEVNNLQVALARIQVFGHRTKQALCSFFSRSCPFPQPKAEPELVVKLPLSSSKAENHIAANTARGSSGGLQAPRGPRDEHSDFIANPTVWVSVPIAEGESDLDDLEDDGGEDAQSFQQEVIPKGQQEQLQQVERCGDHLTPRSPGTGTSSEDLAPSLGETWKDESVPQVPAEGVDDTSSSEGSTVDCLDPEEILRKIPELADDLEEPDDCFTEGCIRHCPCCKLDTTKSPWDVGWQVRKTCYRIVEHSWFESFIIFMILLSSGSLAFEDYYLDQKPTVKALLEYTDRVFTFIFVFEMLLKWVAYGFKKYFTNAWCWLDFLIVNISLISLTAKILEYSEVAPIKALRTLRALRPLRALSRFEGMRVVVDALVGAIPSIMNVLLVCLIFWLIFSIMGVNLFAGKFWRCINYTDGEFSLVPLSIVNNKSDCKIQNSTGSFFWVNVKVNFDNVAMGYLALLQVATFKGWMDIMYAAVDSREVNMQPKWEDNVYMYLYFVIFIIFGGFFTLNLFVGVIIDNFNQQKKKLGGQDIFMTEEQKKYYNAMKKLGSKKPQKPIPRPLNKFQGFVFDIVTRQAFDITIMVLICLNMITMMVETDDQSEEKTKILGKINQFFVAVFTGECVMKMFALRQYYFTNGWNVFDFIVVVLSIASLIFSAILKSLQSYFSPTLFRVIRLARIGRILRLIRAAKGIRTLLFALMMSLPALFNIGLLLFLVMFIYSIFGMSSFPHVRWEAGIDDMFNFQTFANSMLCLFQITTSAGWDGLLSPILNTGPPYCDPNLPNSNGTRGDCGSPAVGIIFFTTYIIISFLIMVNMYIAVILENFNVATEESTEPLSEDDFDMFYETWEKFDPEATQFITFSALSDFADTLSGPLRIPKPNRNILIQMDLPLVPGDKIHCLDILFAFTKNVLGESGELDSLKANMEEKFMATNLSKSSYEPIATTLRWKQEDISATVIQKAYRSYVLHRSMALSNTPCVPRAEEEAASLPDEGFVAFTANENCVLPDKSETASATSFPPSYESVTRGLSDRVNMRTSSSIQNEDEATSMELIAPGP
T1 sequence (Q07699 19-218 partner): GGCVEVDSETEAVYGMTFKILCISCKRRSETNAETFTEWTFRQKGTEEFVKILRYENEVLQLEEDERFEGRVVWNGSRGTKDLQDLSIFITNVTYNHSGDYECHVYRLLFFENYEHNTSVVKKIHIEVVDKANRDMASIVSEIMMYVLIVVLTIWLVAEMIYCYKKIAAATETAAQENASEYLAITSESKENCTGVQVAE
Format: cell-based
Summary of the method: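 IC50 came from 6-8 point curves of P2 current amplitude, normalized to baseline and a positive reference, and corrected for run-down using vehicle-only wells. Automated patch clamp used HEK293-Nav1.8 (with Navβ1 and TREK1) at pH 7.4 outside and CsF-based solution inside. An 8 s inactivating step at −46 mV preceded the 0 mV test pulse, repeated at 0.07 Hz.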

| Structure (SMILES) | IC50 [nM] |
| --- | --- |
| Cc1cc(F)ccc1N1CN(c2ccc(=O)[nH]c2C)C(=O)c2cc(F)ccc21 [Example 143, 6-fluoro-1-(4-fluoro-2-methylphenyl)-3-(2-methyl-6-oxo-1,6-dihydropyridin-3-yl)-2,3-dihydroquinazolin-4(1H)-one] | ≤ 100 |
| O=C1c2ccc(C(F)(F)F)cc2N(c2ccc(F)cc2)CN1c1ccc(=O)[nH]c1 [Example 144, 1-(4-Fluorophenyl)-3-(6-oxo-1,6-dihydropyridin-3-yl)-7-(trifluoromethyl)-2,3-dihydroquinazolin-4(1H)-one] | 126 to 631 |
| Cc1cc(F)ccc1N1CN(c2cnc(=O)[nH]c2)C(=O)c2ccc(C(F)(F)F)cc21 [Example 145, 1-(4-fluoro-2-methylphenyl)-3-(2-oxo-1,2-dihydropyrimidin-5-yl)-7-(trifluoromethyl)-2,3-dihydroquinazolin-4(1H)-one] | 126 to 631 |
| Cc1cc(F)ccc1N1CN(c2ccc(=O)[nH]c2C)C(=O)c2ccc(C(F)(F)F)nc21 [Example 149, 1-(4-fluoro-2-methylphenyl)-3-(2-methyl-6-oxo-1,6-dihydropyridin-3-yl)-7-(trifluoromethyl)-2,3-dihydropyrido[2,3-d]pyrimidin-4(1H)-one] | 126 to 631 |
| CCc1[nH]c(=O)ccc1N1CN(c2ccc(F)cc2C)c2cc(C(F)(F)F)ccc2C1=O [Example 150, 3-(2-ethyl-6-oxo-1,6-dihydropyridin-3-yl)-1-(4-fluoro-2-methylphenyl)-7-(trifluoromethyl)-2,3-dihydroquinazolin-4(1H)-one] | ≤ 100 |
| Cc1cc(F)ccc1N1CN(c2ccc(=O)[nH]c2C)C(=O)c2ccc(Br)cc21 [Example 152, 7-bromo-1-(4-fluoro-2-methylphenyl)-3-(2-methyl-6-oxo-1,6-dihydropyridin-3-yl)-2,3-dihydroquinazolin-4(1H)-one] | ≤ 100 |
| Cc1cc(F)ccc1N1CN(c2ccc(=O)[nH]c2C#N)C(=O)c2ccc(C(F)(F)F)cc21 [Example 154, 3-(1-(4-fluoro-2-methylphenyl)-4-oxo-7-(trifluoromethyl)-1,4-dihydroquinazolin-3(2H)-yl)-6-oxo-1,6-dihydropyridine-2-carbonitrile] | 126 to 631 |
| Cc1[nH]c(=O)ccc1N1CN(c2ccc(F)cc2F)c2cc(C(F)(F)F)ccc2C1=O [Example 155, 1-(2,4-difluorophenyl)-3-(2-methyl-6-oxo-1,6-dihydropyridin-3-yl)-7-(trifluoromethyl)-2,3-dihydroquinazolin-4(1H)-one] | 126 to 631 |
| CCOc1ccc(N2CN(c3ccc(=O)[nH]c3C)C(=O)c3ccc(C(F)(F)F)cc32)cc1 [Example 156, 1-(4-ethoxyphenyl)-3-(2-methyl-6-oxo-1,6-dihydropyridin-3-yl)-7-(trifluoromethyl)-2,3-dihydroquinazolin-4(1H)-one] | 126 to 631 |
| Cc1cc(F)ccc1N1CN(c2ccc(=O)[nH]c2C)C(=O)c2cc(F)c(F)cc21 [Example 158, 6,7-difluoro-1-(4-fluoro-2-methylphenyl)-3-(2-methyl-6-oxo-1,6-dihydropyridin-3-yl)-2,3-dihydroquinazolin-4(1H)-one] | ≤ 100 |
| Cc1[nH]c(=O)ccc1N1CN(c2ccc(F)cc2C(C)C)c2cc(C#N)ccc2C1=O [Example 161, 1-(4-fluoro-2-isopropylphenyl)-3-(2-methyl-6-oxo-1,6-dihydropyridin-3-yl)-4-oxo-1,2,3,4-tetra-hydroquinazoline-7-carbonitrile] | ≤ 100 |
| Cc1[nH]c(=O)ccc1N1CN([C@@H]2CCCC[C@@H]2C)c2cc(C(F)(F)F)ccc2C1=O [Example 162, 3-(2-methyl-6-oxo-1,6-dihydropyridin-3-yl)-1-((1R,2S)-2-methylcyclohexyl)-7-(trifluoromethyl)-2,3-dihydroquinazolin-4(1H)-one] | ≤ 100 |

Further lines, results first:

| IC50 [nM] | Structure (SMILES) |
| --- | --- |
| 126 to 631 | Cc1[nH]c(=O)ccc1N1CN(c2ccc(F)c(C#N)c2C)c2ccc(C(F)(F)F)cc2C1=O [Example 140, 6-fluoro-2-methyl-3-(3-(2-methyl-6-oxo-1,6-dihydropyridin-3-yl)-4-oxo-6-(trifluoromethyl)-3,4-dihydroquinazolin-1(2H)-yl)benzonitrile] |
| 126 to 631 | Cc1[nH]c(=O)ccc1N1CN(c2ccc(F)cc2C(C)C)c2ncc(F)cc2C1=O [Example 141, 6-fluoro-1-(4-fluoro-2-isopropylphenyl)-3-(2-methyl-6-oxo-1,6-dihydropyridin-3-yl)-2,3-dihydropyrido[2,3-d]pyrimidin-4(1H)-one] |
| ≤ 100 | Cc1[nH]c(=O)ccc1N1CN(c2ccc(F)cc2Br)c2ccc(C(F)(F)F)cc2C1=O [Example 142, 1-(2-bromo-4-fluorophenyl)-3-(2-methyl-6-oxo-1,6-dihydropyridin-3-yl)-6-(trifluoromethyl)-2,3-dihydroquinazolin-4(1H)-one] |
| 126 to 631 | Cc1cc(Br)ccc1N1CN(c2ccc(=O)[nH]c2)C(=O)c2ccc(C(F)(F)F)cc21 [Example 146, 1-(4-bromo-2-methylphenyl)-3-(6-oxo-1,6-dihydropyridin-3-yl)-7-(trifluoromethyl)-2,3-dihydroquinazolin-4(1H)-one] |
| 126 to 631 | Cc1[nH]c(=O)ccc1N1CN(c2ccc(F)cc2)c2cc(C(F)(F)F)ccc2C1=O [Example 147, 1-(4-fluorophenyl)-3-(2-methyl-6-oxo-1,6-dihydropyridin-3-yl)-7-(trifluoromethyl)-2,3-dihydroquinazolin-4(1H)-one] |
| ≤ 100 | Cc1cc(C#N)ccc1N1CN(c2ccc(=O)[nH]c2C)C(=O)c2ccc(C(F)(F)F)cc21 [Example 148, 3-methyl-4-(3-(2-methyl-6-oxo-1,6-dihydropyridin-3-yl)-4-oxo-7-(trifluoromethyl)-3,4-dihydroquinazolin-1(2H)-yl)benzonitrile] |
| 794 to 7940 | Cc1cc(F)ccc1N1CN(c2ccc(=O)[nH]c2Cl)C(=O)c2ccc(C(F)(F)F)cc21 [Example 151, 3-(2-chloro-6-oxo-1,6-dihydropyridin-3-yl)-1-(4-fluoro-2-methylphenyl)-7-(trifluoromethyl)-2,3-dihydroquinazolin-4(1H)-one] |
| ≤ 100 | Cc1cc(F)ccc1N1CN(c2ccc(=O)[nH]c2C)C(=O)c2ccc(C#N)cc21 [Example 153, 1-(4-fluoro-2-methylphenyl)-3-(2-methyl-6-oxo-1,6-dihydropyridin-3-yl)-4-oxo-1,2,3,4-tetra-hydroquinazoline-7-carbonitrile] |
| 126 to 631 | Cc1cc(F)ccc1N1CN(c2cc[nH]c(=O)c2)C(=O)c2ccc(C(F)(F)F)cc21 [Example 157, 1-(4-fluoro-2-methylphenyl)-3-(2-oxo-1,2-dihydropyridin-4-yl)-7-(trifluoromethyl)-2,3-dihydroquinazolin-4(1H)-one] |
| ≤ 100 | Cc1[nH]c(=O)ccc1N1CN(c2ccc(F)cc2C(C)C)c2cc(F)c(F)cc2C1=O [Example 159, 6,7-difluoro-1-(4-fluoro-2-isopropylphenyl)-3-(2-methyl-6-oxo-1,6-dihydropyridin-3-yl)-2,3-dihydroquinazolin-4(1H)-one] |
| ≤ 100 | Cc1[nH]c(=O)ccc1N1CN([C@H]2CCCC[C@H]2C)c2cc(C(F)(F)F)ccc2C1=O [Example 160, 3-(2-methyl-6-oxo-1,6-dihydropyridin-3-yl)-1-((1S,2R)-2-methylcyclohexyl)-7-(trifluoromethyl)-2,3-dihydroquinazolin-4(1H)-one] |
